≈ marks a conversion by molar mass, not a printed value. Read-outs that look alike come from different tables or passages of the source. No end group written: not given here.
Assays:
[1] = test system: T-cell lymphomas (HuT78, MJ, HH) and B-cell lymphomas (Ly-4 and Ly-18); test: Anticancer properties of hypercharged peptides (MTS); type: cell-based, human; details: 62.5-500 μg/ml
Procedure: The hyper-charged peptides were screened for their anticancer properties using cell lines derived from patients with various forms of cutaneous lymphomas, including T-cell lymphomas (HuT78, MJ, HH) and B-cell lymphomas (Ly-4 and Ly-18). The relative cytotoxicity of these peptides was also assessed in healthy primary peripheral blood lymphocyte (PBL) T-cells. Cytotoxicity was measured as the mitochondrial function by metabolic reduction of MTS.

[2] = test system: K. pneumoniae; test: microbe, parasite or virus in culture; type: cell-based, Klebsiella pneumoniae
Procedure: (§1) MIC of cationic polymers and polypeptide were tested in accordance with the Clinical and Laboratory Standards Institute (CLSI) guidelines against a panel of antibiotic-susceptible/-resistant bacteria, yeasts and fungal strains. Bacterial and yeast strains were cultured on tryptic soy agar (TSA) and Sabaroud dextrose agar (SDA) plates (Neogen Corporation, MI, USA) overnight respectively. Inocula in Mueller-Hinton broth (MHB) for bacteria and SD broth for C. albicans (Beckton Dickinson, MD, USA) were prepared at 0.5 McFarland. The suspensions were then diluted to a final concentration of 10^5 CFU/ml in a 96-well microtitre plate (SPL Life Sciences Co., Ltd, Korea). Polymers and polypeptides were added to the inoculum in 2-fold serial dilutions to give a range of concentrations from 2-1024 μg/ml. […] The antimicrobial activities were compared with topical antiseptic agents, BAK and CHX. A similar protocol was used to determine the MIC of εPL against antibiotic-resistant pathogens. MIC of the polymers and polypeptides against Fusarium strains was determined in full strength RPMI-1640 buffer. Fungal spores were recovered from a 5-day old culture on a potato dextrose agar and diluted to a concentration of 10^5 spores/ml in 0.9% saline solution. A further 50-fold dilution was done in RPMI-1640 buffer and 100 μl of the inoculum was added to 96 well plates containing an equal volume of test peptides at 2-fold serial dilutions. 200 μl of inoculum without any additives and buffer alone served as positive and negative controls, respectively. The plate was then incubated at 30° C. for 48 h. The absorbance value was measured at 600 nm as before and the lowest concentration of the peptide which inhibited 90% growth was reported. All MIC determinations were performed in duplicates.
(§2) MICs of polymers/antibiotics were determined using the microdilution method in 96 well microtitre plates (SPL Life Sciences Co., Ltd, Korea), following the guidelines of Clinical and Laboratory Standards Institute (CLSI) document M100-S18. Briefly, polymers (1-512 μg/ml) or antibiotics were dissolved in appropriate media (Mueller Hinton broth, MHB for bacteria; Sabaroud's Dextrose (SD) broth for yeasts and RPMI buffer for Fusarium strains) and 100 μl of this was then mixed with an equal volume of microbial inoculum (OD600=˜0.08) in the same media and shaken in a closed incubator.

[3] = test system: A. baumannii; test: microbe, parasite or virus in culture
Procedure: as §1, with “Korea).” for “Korea). Polymers and polypeptides were added to the inoculum in 2-fold serial dilutions to give a range of concentrations from 2-1024 μg/ml.”
as §2

[4] = test system: Carbapenam-resistant Enterobacter strains (CRE); test: microbe, parasite or virus in culture
Procedure: as §1, with “Korea).” for “Korea). Polymers and polypeptides were added to the inoculum in 2-fold serial dilutions to give a range of concentrations from 2-1024 μg/ml.”
as §2

[5] = test system: E. cloacae complex; test: microbe, parasite or virus in culture
Procedure: as §1, with “Korea).” for “Korea). Polymers and polypeptides were added to the inoculum in 2-fold serial dilutions to give a range of concentrations from 2-1024 μg/ml.”
as §2

[6] = test system: P. aeruginosa; type: cell-based, Pseudomonas aeruginosa; details: P. aeruginosa (n = 22)
Procedure: as §1
MICs of polymers/antibiotics were determined using the microdilution method in 96 well microtitre plates (SPL Life Sciences Co., Ltd, Korea), following the guidelines of Clinical and Laboratory Standards Institute (CLSI) document M100-S18. […]

[7] = test system: MRSA; type: cell-based, Staphylococcus aureus; details: MRSA (n = 9)
Procedure: as §1, §2

[8] = test system: S. aureus; test: microbe, parasite or virus in culture; type: cell-based, Staphylococcus aureus
Procedure: as §1, §2

[9] = test system: Vancomycin-resistant Enterococcus (VRE)
Procedure: as §1, with “Korea).” for “Korea). Polymers and polypeptides were added to the inoculum in 2-fold serial dilutions to give a range of concentrations from 2-1024 μg/ml.”
as §2

[10] = test system: C. albicans; details: C. albicans (n = 5)
Procedure: as §1, with “Korea).” for “Korea). Polymers and polypeptides were added to the inoculum in 2-fold serial dilutions to give a range of concentrations from 2-1024 μg/ml.”
as §2

[11] = test system: E. coli; test: microbe, parasite or virus in culture; type: cell-based, Escherichia coli
Procedure: as §1, §2

[12] = test system: primary human dermal fibroblasts (HDFs); test: MTS cytotoxicity assay
Procedure: MTS ((3-(4,5-dimethylthiazol-2-yl)-5-(3-carboxymethoxyphenyl)-2-(4-sulfophenyl)-2H-tetrazolium)) assay and high content analysis (HCA) were performed to elucidate the effect of various polymers on metabolic activity and morphological parameters of cultured human dermal fibroblasts (hDF), respectively as described previously. The antineoplastic agent, nocodazole (5 μg/ml), served as the […] control whereas cells treated with PBS served as positive control. The average values from three independent triplicate experiments are reported. Cells were cultured in 96-well plates and scanned (16 randomly selected fields/well) using an automated microscope IN Cell Analyzer 2200 (GE Healthcare). The multi-parametric cytotoxicity bio-application module of the IN Cell Investigator software (GE Healthcare) was used in quantitative estimations and morphotypic analysis of acquired images, which were automatically converted into color-coded heatmaps using Spotrfire® software.
Human dermal fibroblast cells were seeded in 96-well plates (2×10^3 cells/well) and incubated for 24 h at 37° C. and 5% CO2. Cells were then treated with various concentrations of polymers or peptides (62.5 μg/ml-1 mg/ml. At the end of the treatment period (after 24 h), 20 or 50 μl of MTS tetrazolium solution was added into 96-well or 12-well plates and further incubated for 2 h at 37° C. Subsequently, the absorbance was measured at 490 nm using a microplate reader (Infinite M200 Pro, Tecan, Switzerland) and the relative cell viability was calculated. Each treatment was performed in two triplicates and reported.
The cytotoxicity of peptides and polymers were determined using CellTier 96® Aqueous One solution cell proliferation assay kit according to the manufacturer's instruction (Promega Corporation, Madison, Wis.). This assay evaluates mitochondrial function by measuring ability of viable cells to reduce MTS ((3-(4,5-dimethylthiazol-2-yl)-5-(3-carboxymethoxyphenyl)-2-(4-sulfophenyl)-2H-tetrazolium)) into a quantifiable […] formazan product. HDFs were seeded in 96-well plates (2×10^3 cells/well) and incubated for 24 h at 37° C. and 5% CO2. Cells were then treated with a concentrated stock solution of polymers (final concentration 62.5-2000 μg/ml in the well) or peptides (final concentration 4-1000 μg/ml in the well). After 24 h, 20 μl of MTS tetrazolium solution was added into 96-well well plates and further incubated for 2 h at 37° C. Subsequently, the absorbance was measured at 490 nm using a microplate reader (Infinite M200 Pro, Tecan, Switzerland) and the relative cell viability was calculated relative to untreated control (10 mM PBS, pH 7.0). Each treatment was performed in two triplicates and reported.

[13] = test system: a number of micro-organisms; details: cited from earlier work
[14] = test system: red blood cells; details: cited from earlier work
[15] = at 5 × 10^5 CFU/mL, reference 7
[16] = at 5 × 10^5 CFU/mL, reference 5

N=C(N)NCCC[C@@H](NC(=O)[C@@H](N)CCCCNC(=O)[C@@H](CCCNC(=N)N)NC(=O)[C@@H](N)CCCCNC(=O)[C@@H](CCCNC(=N)N)NC(=O)[C@@H](N)CCCCNC(=O)[C@@H](CCCNC(=N)N)NC(=O)[C@@H](N)CCCCNC(=O)[C@@H](CCCNC(=N)N)NC(=O)[C@@H](N)CCCCNC(=O)[C@@H](CCCNC(=N)N)NC(=O)[C@@H](N)CCCCN)C(=O)O [HC4, KrKrKrKrKrKr]
cell killing in lymphoma cell lines [1]: varying degrees of cell killing
MIC ([2]; K. pneumonia (n = 4)): 16 to 128 µg/mL
MIC ([3]; A. baumanii (n = 3)): 16 to 32 µg/mL
MIC ([4]; CRE strains (n = 4)): 64 to 128 µg/mL
MIC ([5]; E. clocae complex (n = 4)): 64 to 128 µg/mL
MIC [6]: 16 to 64 µg/mL
MIC [7]: 16 to 64 µg/mL
MIC ([8]; S. aureus (n = 6)): 32 µg/mL (≈ 18.6 µM)
MIC ([9]; VRE (n = 3)): 16 µg/mL (≈ 9.28 µM)
MIC [10]: 16 to 32 µg/mL
MIC ([11]; E. coli (n = 3)): 16 µg/mL (≈ 9.28 µM)

CC[C@H](C)[C@H](NC(=O)[C@H](CO)NC(=O)[C@H](CCCCN)NC(=O)[C@H](CC(C)C)NC(=O)[C@H](CCCCN)NC(=O)[C@@H](N)CC(C)C)C(=O)N[C@H](C(=O)N[C@@H](CO)C(=O)N[C@@H](Cc1c[nH]c2ccccc12)C(=O)N[C@@H](C)C(=O)N[C@@H](CCCCN)C(=O)N[C@@H](CCCCN)C(=O)N[C@H](C(=O)N[C@@H](CC(C)C)C(N)=O)C(C)C)C(C)C [Mastoparan B, LKLKSIVSWAKKVL]
Peptide concentration required to impart cytotoxic effect ([12]; MTS assay, primary human fibroblasts): exceeded 62.5 μg/ml
Cytotoxicity for HDFs ([12]; Table 7): 125 µg/mL
MIC90 ([3]; A. baumanii (n = 10), 90% of strains susceptible, Table 7): (MIC90 = 2) μg/ml
MIC50 ([4]; CRE (n = 19), 50% of strains susceptible, Table 7): (MIC50 = 4) μg/ml
MIC90 ([9]; VRE (n = 21), 90% of strains susceptible, Table 7): (MIC90 = 4)^1 μg/ml

NC[C@H]1O[C@H](O[C@H]2[C@H](O)[C@@H](O[C@H]3O[C@H](CO)[C@@H](O)[C@H](N)[C@H]3O)[C@H](N)C[C@@H]2N)[C@H](N)C[C@@H]1O [Tobramycin]
MIC ([2]; Klebsiella pneumoniae, K. pneumoniae (n = 8), range over strains, read-out: MIC): 195 to 100000 µg/mL (≈ 417 to 214000 µM)
MIC ([3]; Acinetobacter baumannii): 800 to 50000 µg/mL (≈ 1710 to 107000 µM)
MIC ([4]; Enterobacter): 800 to 50000 µg/mL (≈ 1710 to 107000 µM)
MIC ([5]; Enterobacter cloacae): 1560 to 100000 µg/mL (≈ 3340 to 214000 µM)
MIC ([8]; Staphylococcus aureus, S. aureus (n = 9), read-out: MIC): 500 to 1000 µg/mL (≈ 1070 to 2140 µM)
MIC ([11]; Escherichia coli, E. coli (n = 8), range over strains, read-out: MIC): 195 to 100000 µg/mL (≈ 417 to 214000 µM)

CGIGAVLKVLTTGLPALISWIKRKRQQC [Modified peptide: CGIGAVLKVLTTGLPALISWIKRKRQQC (cyclised)] (also: cyclised, mode not given here)
MIC (range against a number of micro-organisms) [13, 15]: 0.8 - 10 μM at
Haemolytic activity ([14]; at 10 μM, reference 7): ~50% at 10 μM

CGIGAVLKVLTTGLPALISWIKRKRQQC [Unmodified parent peptide: CGIGAVLKVLTTGLPALISWIKRKRQQC (lin]
MIC (range against a number of micro-organisms) [13, 15]: 2 - 32 μM at
Haemolytic activity ([14]; at 10 μM, reference 7): Complete

GIGAVKKVLTTGKPALISWKKRKRQQ (not fully specified (residues 6, 13, 20); ends and bridges not checked; also: peptoid residue at 6, 13, 20 (identity not given here))
MIC (range against a number of micro-organisms) ([13]; at 1 × 10^6 CFU/mL, reference 6): 2 - 8 μM at
Haemolytic activity ([14]; at 100 μM, reference 6): <10% at 100 μM

GIGAVLKVLTTGLCALISWIKRKRQQ (ends and bridges not checked)
Haemolytic activity ([14]; at 2.5 μM, reference 8): 50% at 2.5 μM

GIGAVLKVLTTGLPALISWIKRKRQQ [listing 1 of 2 here]
MIC (range against a number of micro-organisms) ([13]; at 1 - 4 × 10^5 CFU/mL, reference 4): 0.1 - 2 μM at 1 -
Haemolytic activity ([14]; at 2 μM, reference 4): 100% at 2 μM

GIGAVLKVLTTGLPALISWIKRKRQQ [listing 2 of 2 here]
MIC ([13]; reference 9, result in words): Loss of peptide
Haemolytic activity ([14]; reference 9, result in words): Loss of peptide

GIGAVLKVLTTGLPALISWIKRKRQQ-NH2 [Modified peptide: GIGAVLKVLTTGLPALISWIKRKRQQ-NH2]
MIC (range against a number of micro-organisms) [13, 16]: 0.8 - 12 μM at
Haemolytic activity ([14]; at 50 μM, reference 5): <25% at 50 μM

GIGAVLKVLTTGLPALISWIKRKRQQ-NH2 [Unmodified parent peptide: GIGAVLKVLTTGLPALISWIKRKRQQ-NH2]
MIC (range against a number of micro-organisms) [13, 16]: 0.3 - 20 μM at
Haemolytic activity ([14]; at <10 μM, reference 5): 100% at <10 μM

From patent US11396531B2, “Antimicrobial peptides comprising epsilon lysine residues” (priority 2016, dated 2022)
